In paper PMC10548452 (Journal of medicinal chemistry, 2021):
Where two headings read alike, the source gives them in different places.

Assays:
[1] = molecular target: mouse MOR expressed in CHO cell lines (mMOR-CHO) (Mus musculus, UniProt P42866); experiment: MOR competitive radioligand binding assay; conditions: ratio of Ki values vs VZMC001
[2] = molecular target: mouse mu opioid receptor (mMOR-CHO) (Mus musculus, UniProt P42866); experiment: Calcium mobilization assay in mMOR-CHO cells; format: cell-based; conditions: agonist mode, varying concentrations
Sequence of mouse mu opioid receptor (mMOR-CHO) (P42866 whole entry): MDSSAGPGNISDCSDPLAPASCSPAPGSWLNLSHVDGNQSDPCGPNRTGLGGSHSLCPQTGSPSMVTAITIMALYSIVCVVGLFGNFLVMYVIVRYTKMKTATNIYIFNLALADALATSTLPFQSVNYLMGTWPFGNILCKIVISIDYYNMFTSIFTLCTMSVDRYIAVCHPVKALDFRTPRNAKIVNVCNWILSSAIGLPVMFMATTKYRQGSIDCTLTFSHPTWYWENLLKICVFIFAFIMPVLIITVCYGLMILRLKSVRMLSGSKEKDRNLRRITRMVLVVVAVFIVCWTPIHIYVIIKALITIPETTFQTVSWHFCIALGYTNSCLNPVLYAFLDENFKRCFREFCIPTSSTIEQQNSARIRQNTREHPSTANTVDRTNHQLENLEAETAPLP

[3] = molecular target: rhesus macaque CCR5 expressed in Chem-1 cells (Macaca mulatta, UniProt P61813); experiment: CCR5 competitive radioligand binding assay
CCR5 (HOS-CCR5 cells) = CCR5 (HOS-CCR5 cells) (Homo sapiens, UniProt P51681); experiment: Calcium mobilization assay in HOS-CCR5 cells; format: cell-based; conditions: for CCR5 activation (agonism) in Ca2+ mobilization assay: within the range of concentrations tested
Sequence of CCR5 (HOS-CCR5 cells) (P51681 whole entry): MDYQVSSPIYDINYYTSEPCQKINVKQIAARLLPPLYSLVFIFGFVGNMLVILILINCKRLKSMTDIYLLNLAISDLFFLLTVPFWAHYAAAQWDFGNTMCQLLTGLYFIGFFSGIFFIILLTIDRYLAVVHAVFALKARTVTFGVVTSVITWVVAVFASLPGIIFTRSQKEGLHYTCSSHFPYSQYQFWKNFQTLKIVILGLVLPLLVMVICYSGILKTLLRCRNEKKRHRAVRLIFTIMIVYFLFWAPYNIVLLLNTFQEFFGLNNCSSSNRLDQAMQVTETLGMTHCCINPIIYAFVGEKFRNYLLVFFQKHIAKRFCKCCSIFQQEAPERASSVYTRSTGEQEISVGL

HIV-1BaL [4] = experiment: HIV-1BaL infection assay in OPRM1- or control plasmid-transfected TZM-bl cells; format: cell-based; conditions: Human immunodeficiency virus 1, TZM-bl, read-out: Inhibition of HIV-1BaL infection EC50, TZM-bl cells containing only control plasmid
[5] = test system: HIV-1BaL Env-pseudotyped Luc-expressing virus (HIV-1-Luc); experiment: HIV-1-Luc infection assay in nonstimulated PBMCs; format: cell-based; conditions: 1000 nM
Cytotoxicity = conditions: human
GHOST CCR5 cells = experiment: Cytotoxicity; conditions: GHOST CCR5 cells; XTT; triplicate
HIV-1BaL [6] = experiment: Anti-HIV-1BaL activity; conditions: GHOST CCR5 cells
[7] = test system: HIV-1BaL Env-pseudotyped Luc-expressing virus; format: cell-based; conditions: PHA-stimulated PBMCs; opioid 10 nM
CCR5 (Macaca mulatta) = CCR5 (Macaca mulatta) (UniProt P61813); experiment: radioligand binding; conditions: cited from earlier work
HIV = conditions: primary human astrocytes, cited from earlier work

Sequence of MIP-1α (P10147 27-92): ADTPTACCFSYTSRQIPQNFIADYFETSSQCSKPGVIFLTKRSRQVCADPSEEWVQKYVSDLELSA
Sequence of mouse MOR expressed in CHO cell lines (mMOR-CHO) (P42866 whole entry): as the sequence (P42866 whole entry) above

CC(C)c1nnc(CCNC(=O)COCC(=O)NCCCCCCCNC(=O)COCC(=O)N[C@@H]2CC[C@@]3(O)[C@H]4Cc5ccc(O)c6c5[C@@]3(CCN4CC3CC3)[C@H]2O6)n1C1C[C@H]2CC[C@@H](C1)N2CC[C@H](NC(=O)C1CCC(F)(F)CC1)c1ccccc1 (some centres unmarked) [VZMC013]
fold higher MOR binding affinity than VZMC001 [1]: 8.6 fold
agonism in Ca2+ mobilization assay [2]: No agonism was observed
fold greater CCR5 binding affinity than monovalent VZMC014 ([3]; ratio of Ki values vs VZMC014): 12 fold
CCR5 activation (agonism) in Ca2+ mobilization assay (CCR5 (HOS-CCR5 cells); agonist mode): none of these compounds appeared to activate CCR5
fold more potent than VZMC001 in inhibiting CCL5-stimulated Ca2+ mobilization (CCR5 (HOS-CCR5 cells); ratio of IC50 values vs VZMC001): 2.2 fold
EC50 (HIV-1BaL [4]): 0.61 µM
Inhibition of HIV-1-Luc infectivity [5]: nearly complete blockade
viability at 6 days, 100 µM (Cytotoxicity): ~100%
Cytotoxicity TC50 (GHOST CCR5 cells): >100 µM
TI (therapeutic index, TC50/EC50) (HIV-1BaL [6]): >1075

C[C@@H](NC(=O)[C@@H](N)Cc1ccc(O)cc1)C(=O)NCC(=O)N(C)[C@@H](Cc1ccccc1)C(=O)NCCO [DAMGO, [D-Ala^2-MePhe^4-Gly(ol)^5]enkephalin]
effect on HIV expression [7]: remarkable increases in HIV expression

MIP-1α (from UniProt P10147)
Kd (CCR5 (Macaca mulatta)): 0.00031 µM

CNC(=O)COCC(=O)NCCCCCCCNC(=O)COCC(=O)NCCc1nnc(C(C)C)n1[C@@H]1C[C@H]2CC[C@@H](C1)N2CC[C@H](NC(=O)C1CCC(F)(F)CC1)c1ccccc1 [VZMC014]
IC50 (CCR5 (HOS-CCR5 cells)): 0.116 µM
CCR5 activation (agonism) in Ca2+ mobilization assay (CCR5 (HOS-CCR5 cells); agonist mode): none of these compounds appeared to activate CCR5

CC(C)c1nnc(CCNC(=O)COCC(=O)NCCCCCNC(=O)COCC(=O)N[C@@H]2CC[C@@]3(O)[C@H]4Cc5ccc(O)c6c5[C@@]3(CCN4CC3CC3)[C@H]2O6)n1C1C[C@H]2CC[C@@H](C1)N2CC[C@H](NC(=O)C1CCC(F)(F)CC1)c1ccccc1 (some centres unmarked) [VZMC019]
IC50 [3]: > 10 µM

CCL5: C─C motif chemokine ligand 5, CCR5 agonist control [reference compound]
EC50 (CCR5 (HOS-CCR5 cells); read-out: Ca2+ mobilization agonism EC50, agonist mode, HOS-CCR5 cells with Gqi5): 0.155 ± 0.00658 µM

Cc1nnc(C(C)C)n1C1C[C@H]2CC[C@@H](C1)N2CC[C@H](NC(=O)C1CCC(F)(F)CC1)c1ccc(NC(=O)COCC(=O)NCCCCCCCNC(=O)COCC(=O)N[C@@H]2CC[C@@]3(O)[C@H]4Cc5ccc(O)c6c5[C@@]3(CCN4CC3CC3)[C@H]2O6)cc1 (some centres unmarked) [VZMC001, reference compound]
fold higher inhibition of HIV entry than maraviroc (HIV; with morphine): 7 fold
fold higher inhibition of HIV entry than maraviroc (HIV; without morphine): 3.3 fold
Cytotoxicity TC50 (GHOST CCR5 cells): >100 µM
RT activity (HIV-1BaL [6]; concentrations up to 100 μM, 0 μM defined as 100%): 107.6–226.1%
